Laboratory results taken from US5587479A, “Basic derivatives of glutamic acid and aspartic acid as gastrin or cholecystokinin antagonists” (priority 1992, dated 1996).
Values after ≈ are worked out from the molar mass of the structure shown. Read-outs that look alike come from different tables or passages of the source.

What was measured:
[1] = target: T1, central CCK-B receptors (guinea pig cortical membrane) (Cavia porcellus, UniProt H0VZC5); assay: Inhibition of binding of (3-H)[N-methyl-N-leucine]CCK-8 to guinea pig cortical membranes (anti-CCK-B); conditions: IC50, inhibition of binding of (3-H)[N-methyl-N-leucine]CCK-8 to the guinea pig cortical membrane, 150 minutes at 25° C.
T1 construct: Cerebral cortices of white male guinea pigs were therefore used; from tissue; host or cells: guinea pig cerebral cortex membranes
T1 sequence (H0VZC5 1-426): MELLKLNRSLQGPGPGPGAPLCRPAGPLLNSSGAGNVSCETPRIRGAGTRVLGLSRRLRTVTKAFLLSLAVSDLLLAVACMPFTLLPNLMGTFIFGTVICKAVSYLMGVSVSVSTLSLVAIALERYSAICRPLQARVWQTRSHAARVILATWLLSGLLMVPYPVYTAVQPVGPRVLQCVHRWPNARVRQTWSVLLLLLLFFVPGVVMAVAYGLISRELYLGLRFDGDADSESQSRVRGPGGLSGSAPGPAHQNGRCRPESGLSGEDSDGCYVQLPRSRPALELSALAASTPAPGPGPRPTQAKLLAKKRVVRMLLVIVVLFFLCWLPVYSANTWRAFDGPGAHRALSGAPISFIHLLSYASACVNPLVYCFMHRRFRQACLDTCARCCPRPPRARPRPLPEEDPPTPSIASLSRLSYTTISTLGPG
Method: Cerebral cortices of white male guinea pigs were therefore used, according to the method mentioned above, so as to obtain a membrane content/ml corresponding to about 300 mcg of proteins/mi. The membranes were incubated together with the radioactive tracer and the compounds under test for 150 minutes at 25° C. After the supernatant liquid had been discarded, the radioactivity associated with the pellet was determined with a liquid scintillator.

[2] = tested on: acid secretion induced by pentagastrin; assay: Activity against gastric secretion stimulated with pentagastrin in the anaesthetized rat; assay type: in vivo; conditions: iv; anaesthetized rat, pentagastrin 30 mcg/kg/h, I.V. bolus; read-out: Antagonistic activity (ID50) towards acid secretion induced by pentagastrin
Method: The investigation of the activity against gastric secretion performed by the compounds of the invention by means of an antigastrin mechanism was carried out in vivo in anaesthetized rats with the use of male animals weighing about 200 g. Gastric secretion was stimulated with pentagastrin and the method of K. S. Lai [Gut 5, (1964), 327-341] was used, slightly modified.
After tracheotomy, the oesophagus and duodenum were cannulated. Perfusion was carried out with a tepid solution (37° C.) of 0.25 mM NaOH which was passed through the stomach by means of a peristaltic pump at a constant flow rate of 1 ml/minute. After stabilization for 20 minutes, the stimulant, dissolved in a physiological solution, was perfused for 120 minutes at a dose of 30 mcg/kg/h in a volume of 0.95 ml/hour. After perfusion for 60 minutes (the basal simulation), the product under test was administered intravenously (I.V.) as a bolus and the perfusion of the stimulant was continued for a further 60 minutes. The acid secretion was recorded continuously as a function of time.
The activity of the product was evaluated as the percentage reduction in the secreted acidity after the administration of the product compared with the basal acidity measured during the first 60 minutes of collection in the presence of pentagastrin alone.

[3] = target: T2, cholecystokinin receptors of the pancreatic cells of the rat (CCK-A) (Rattus norvegicus, UniProt P30551); assay: Inhibition of the binding of [125-I]-[Bolton-Hunter]-CCK-8 to rat pancreatic cells (anti-CCK-A); conditions: rat pancreatic cells
T2 construct: The pancreatic cells of the rat were prepared as described by Makovec et al; from tissue; host or cells: rat pancreatic cells
T2 sequence (P30551 1-444): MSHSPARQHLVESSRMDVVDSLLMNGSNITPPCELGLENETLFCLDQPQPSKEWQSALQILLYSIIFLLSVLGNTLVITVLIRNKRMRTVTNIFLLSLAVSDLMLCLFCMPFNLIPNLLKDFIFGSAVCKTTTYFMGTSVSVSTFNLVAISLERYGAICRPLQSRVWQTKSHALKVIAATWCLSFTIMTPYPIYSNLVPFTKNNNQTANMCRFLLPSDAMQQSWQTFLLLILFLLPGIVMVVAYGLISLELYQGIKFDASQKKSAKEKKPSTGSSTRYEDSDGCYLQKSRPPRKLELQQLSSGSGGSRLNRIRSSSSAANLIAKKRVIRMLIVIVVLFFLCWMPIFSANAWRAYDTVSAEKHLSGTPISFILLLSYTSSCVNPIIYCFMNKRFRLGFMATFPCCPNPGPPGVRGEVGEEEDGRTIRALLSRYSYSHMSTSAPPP
Method: The pancreatic cells of the rat were prepared as described by Makovec et al. (reference cited) so as to produce about 5×10^6 cells/mi. The cells were then incubated together with the radioactive tracer and the compounds under test for 30 minutes at 37° C.
After the supernatant liquid had been discarded, the radioactivity associated with the pellet was determined with a gamma counter (80% efficiency).

guinea-pig ureters = assay: Antispastic activity in vitro: spontaneous motility of guinea-pig ureters; conditions: for IC50: Cavia porcellus, five minutes contact, 37° C.
Text: The isotonic contractions were detected by means of a force transducer and recorded. […] A given concentration of the product under test was then introduced into the bath and left in contact with the prepared specimen for five minutes, after which the ureter was washed until its own spontaneous activity was re-established.

CCK-B receptors = conditions: guinea-pig; cited from earlier work

IC50 [1] | Molecule | ED50 [2] | also measured
2.4 µM | O=C(O)CC[C@@H](NC(=O)c1cc(Cl)cc(Cl)c1)C(=O)N1CCC2(CCCC2)CC1 [CR 2194, reference compound] | 11 mg/kg | 
 | CN1CCN(C(=O)C[C@@H](NC(=O)c2cc(Cl)cc(Cl)c2)C(=O)N2CCC3(CCCC3)CC2)CC1 [Compound 70] | 18.9 mg/kg | 
 | CCCN(CCC)C(=O)C(CCC(=O)O)NC(=O)c1ccccc1 (stereo not shown) [proglumide, reference compound] | 500 mg/kg | 
9.2 µM | CCCCCN(CCCCC)C(=O)[C@@H](CCC(=O)O)NC(=O)c1ccc(Cl)c(Cl)c1 [R-lorglumide, reference compound] |  | times more active than the compound 59 (CCK-A binding) [3]: about 25 times
2.8 µM | O=C(CC[C@@H](NC(=O)c1cc(Cl)cc(Cl)c1)C(=O)N1CCC2(CCCC2)CC1)NCCN1CCOCC1 [Compound 3] | 12.8 mg/kg | activity on guinea-pig ureters (in words) (guinea-pig ureters): extremely active; IC50 (guinea-pig ureters; force of the contractions, read-out: IC50 (force), inhibition of the spontaneous motility of guinea-pig ureters in vitro): 4.5 µg/mL (≈ 8.13 µM); IC50 (guinea-pig ureters; frequency of the contractions, read-out: IC50 (frequency), inhibition of the spontaneous motility of guinea-pig ureters in vitro): 4.3 µg/mL (≈ 7.77 µM)
 | CN1CCN(C(=O)CC[C@@H](NC(=O)c2cc(Cl)cc(Cl)c2)C(=O)N2CCC3(CCCCC3)CC2)CC1 [Compound 13] | 8.5 mg/kg | 
 | non-sulphated [3-H][N-methyl-N-leucine]CCK-8 |  | affinity for the receptors of the cortex (CCK-B), times greater than for those of the pancreas (CCK-A) (CCK-B receptors): about 4000 times
